Measurements taken from patent publication EP2266984A1, “Pyrido[2,3-d]pyrimidines as Wnt antagonists for treatment of cancer and arthritis” (Deutsches Krebsforschungszentrum Stiftung des öffentlichen …, priority 2009, dated 2010).

Columns and labels:
[1] = system: Hek293T; assay: CellTiterGlo cytotoxicity assay in Hek293T; type: cell-based; details: 24h after compound addition
Experimental: For examination of cytotoxicity in these cancer cell lines the commercial available CellTiterGlo® Reagent (Promega, USA) was used according to the manufactor.
Compounds were applied to Hek293T (denoted (1)) or HepG2 (denoted (2)), cultured in Dulbecco's Modified Eagles Medium, supplemented with 10% fetal calf serum and 1% penicillin/streptomycin. Cells were grown in T75 flasks at 37 °C, 5% CO2 and trypsinized when 60-80% confluent by adding 2 ml of 0.25% Trypsin-EDTA solution. Cells were then re-suspended into culture medium yielding approx. 4000 cells (1) or 4500 cells (2), suspended in 30 microl medium. 48h after cell seeding, compounds were added to yield the desired final concentrations. 24h after compound addition cytotoxicity was evaluated. For this purpose the media was removed and CellTiterGlo® was added according to the manufactors manual. In this assay the luciferase emission readout is directly correlated with the cellular amount of ATP, low luciferase emission thus is reflecting cytotoxicity of a compound. For the evaluation of the IC50 the compound was applied in increasing concentrations yielding final concentrations per well of 5nM - 100 microM.

[2] = system: HS68; assay: Cell line specific cytotoxicity, count of Hoechst labeled nuclei, HS68 fibroblasts; type: cell-based, human; details: for Normalized cell count (HS68): normal cells, at least 72 hr
Experimental: For examination of cell line-specific cytotoxicity, compounds were applied to human colorectal cancer cells (HCT116, denoted (1); SW480, denoted (2); Dld-1, denoted (3)) and human fibroblasts (HFF-1, denoted (4); HS-68, denoted (5)), cultured in Mc Coy's (1) and Dulbecco's Modified Eagles Medium ((2)-(5)), supplemented with 10% ((1)-(3)) and 20% ((4), (5)) fetal calf serum and 1% penicillin/streptomycin. Cells were grown in T75 flasks at 37 °C, 5% CO2 and trypsinized when 60-80% confluent by adding 2 ml of 0.25% Trypsin-EDTA solution. Cells were then re-suspended into culture medium yielding approx. 750 cells, suspended in 45 microl medium, were plated into each well of a black 384-well plate for fluorescence imaging experiments. […] Compound incubation was terminated by (a) fixation and (b) permeabilisation of cells, followed by (c) fluorescence labeling of cell nuclei for cytometric quantification or by immunocytochemistry for microscopic evaluation of cell morphology. The three steps were performed by replacing the solution of the previous step in each well of a 384-well plate by (a) 30 microl PBS (phosphate buffered saline) containing 5% PFA (paraformaldehyde), (b) 30 microl PBS containing 0.2% TritonX-100 and (c) 10 microl PBS containing Hoechst-33342 for cytometry or Hoechst-33342, FITC-(fluorescein isothiocyanate-)labeled alpha-tubulin antibodies and TRITC-(tetramethylrhodamine isothiocyanate-)labeled phalloidin for microscopy. Solutions were incubated for 15 (a,b) and 30 min (c) in the dark at room temperature. Cells were washed twice between each step with 30 microl PBS. The assay system was miniaturized and adapted to automated workflow using liquid-handling robotics.
Cell line-specific cytotoxicity was quantified by counting the number of Hoechst labeled nuclei per well of a 384-well plate using a plate cytometer. Data obtained with the cytometer was analysed using standard data analysis software.
Identified hits were further evaluated by visual inspection of fluorescence micrographs obtained from imaging using a conventional fluorescence microscope.

[3] = system: human colon carcinoma cells HCT116; assay: Antiproliferative activity against HCT116, count of Hoechst labeled nuclei; type: cell-based; details: for Normalized cell count (HCT 116): HCT116 colon carcinoma cells
Experimental: For examination of cell line-specific cytotoxicity, compounds were applied to human colorectal cancer cells (HCT116, denoted (1); SW480, denoted (2); Dld-1, denoted (3)) and human fibroblasts (HFF-1, denoted (4); HS-68, denoted (5)), cultured in Mc Coy's (1) and Dulbecco's Modified Eagles Medium ((2)-(5)), supplemented with 10% ((1)-(3)) and 20% ((4), (5)) fetal calf serum and 1% penicillin/streptomycin. Cells were grown in T75 flasks at 37 °C, 5% CO2 and trypsinized when 60-80% confluent by adding 2 ml of 0.25% Trypsin-EDTA solution. Cells were then re-suspended into culture medium yielding approx. 750 cells, suspended in 45 microl medium, were plated into each well of a black 384-well plate for fluorescence imaging experiments. 24 - 36 hr later 5 microl compound solution (100 microM compound dissolved in ultra pure water containing 1% DMSO), were added to achieve a final concentration of 10 microM and were incubated for at least 72 hr. Compound incubation was terminated by (a) fixation and (b) permeabilisation of cells, followed by (c) fluorescence labeling of cell nuclei for cytometric quantification or by immunocytochemistry for microscopic evaluation of cell morphology. The three steps were performed by replacing the solution of the previous step in each well of a 384-well plate by (a) 30 microl PBS (phosphate buffered saline) containing 5% PFA (paraformaldehyde), (b) 30 microl PBS containing 0.2% TritonX-100 and (c) 10 microl PBS containing Hoechst-33342 for cytometry or Hoechst-33342, FITC-(fluorescein isothiocyanate-)labeled alpha-tubulin antibodies and TRITC-(tetramethylrhodamine isothiocyanate-)labeled phalloidin for microscopy. Solutions were incubated for 15 (a,b) and 30 min (c) in the dark at room temperature. Cells were washed twice between each step with 30 microl PBS. The assay system was miniaturized and adapted to automated workflow using liquid-handling robotics.
Cell line-specific cytotoxicity was quantified by counting the number of Hoechst labeled nuclei per well of a 384-well plate using a plate cytometer. Data obtained with the cytometer was analysed using standard data analysis software. […]
The examination of the antiproliferative activity against human colon carcinoma cells HCT116 was carried out in analogy to example 203. […] Compounds of the present invention have potent antiproliferative acivity against human colon carcinoma cells as shown for HCT116 in Table 6.

Compound	Normalized toxicity values (Hek293T) ([1]; 0.005 microM)	Normalized toxicity values (Hek293T) ([1]; 0.015 microM)	Normalized toxicity values (Hek293T) ([1]; 0.046 microM)	Normalized toxicity values (Hek293T) ([1]; 0.137 microM)	Normalized toxicity values (Hek293T) ([1]; 0.412 microM)	Normalized toxicity values (Hek293T) ([1]; 1.235 microM)	Normalized toxicity values (Hek293T) ([1]; 3.704 microM)	Normalized toxicity values (Hek293T) ([1]; 11.111 microM)	Normalized toxicity values (Hek293T) ([1]; 33.333 microM)	Normalized toxicity values (Hek293T) ([1]; 100.000 microM)	Normalized cell count (HS68) ([2]; 0.005 microM)	Normalized cell count (HS68) ([2]; 0.015 microM)	Normalized cell count (HS68) ([2]; 0.046 microM)	Normalized cell count (HS68) ([2]; 0.137 microM)	Normalized cell count (HS68) ([2]; 0.412 microM)	Normalized cell count (HS68) ([2]; 1.235 microM)	Normalized cell count (HS68) ([2]; 3.704 microM)	Normalized cell count (HS68) ([2]; 11.111 microM)	Normalized cell count (HS68) ([2]; 33.333 microM)	Normalized cell count (HS68) ([2]; 100.000 microM)	other results
CCOC(=O)c1c(C)nc2c(c(N3CCN(C(c4ccc(F)cc4)c4ccc(F)cc4)CC3)nc(=O)n2-c2ccccc2)c1-c1ccccc1 [Example 157]	1.1275	1.0600	1.1075	1.0975	0.9535	0.9633	1.0078	1.1475	1.3825	1.5650	1	1.092	1.081	1.128	1.062	1.132	1.18	1.167	1.2661	1.294	Normalized cell count (HCT 116) ([3]; 0.005 microM): 1; Normalized cell count (HCT 116) ([3]; 0.015 microM): 1.101; Normalized cell count (HCT 116) ([3]; 0.046 microM): 1.031; Normalized cell count (HCT 116) ([3]; 0.137 microM): 1.151; Normalized cell count (HCT 116) ([3]; 0.412 microM): 1.072; Normalized cell count (HCT 116) ([3]; 1.235 microM): 0.9399; Normalized cell count (HCT 116) ([3]; 3.704 microM): 0.8282; Normalized cell count (HCT 116) ([3]; 11.111 microM): 0.7256; Normalized cell count (HCT 116) ([3]; 33.333 microM): 0.3684; Normalized cell count (HCT 116) ([3]; 100.000 microM): 0.2263
CCOC(=O)c1c(C)nc2c(c(N3CCN(C/C=C/c4ccccc4)CC3)nc(=O)n2-c2ccccc2)c1-c1ccccc1 [Example 153, 7-Methyl-2-oxo-1,5-diphenyl-4-[4-((E)-3-phenyl-allyl)-piperazin-1-yl]-1,2-dihydro-pyrido[2,3-d]pyrimidine-6-carboxylic acid ethyl ester]	1.0725	1.0650	1.0425	0.9703	1.0800	1.0623	1.1125	1.1475	1.1375	0.0290	1	1.0005	0.9849	0.9755	0.9186	0.9639	0.9349	0.9432	0.826	0.2108	Effect on normal cells (HS-68) ([2]; 10 microM, HS-68 cell line): not affected; Normalized cell count (HCT 116) ([3]; 0.005 microM): 1; Normalized cell count (HCT 116) ([3]; 0.015 microM): 0.9124; Normalized cell count (HCT 116) ([3]; 0.046 microM): 0.9327; Normalized cell count (HCT 116) ([3]; 0.137 microM): 0.9534; Normalized cell count (HCT 116) ([3]; 0.412 microM): 0.8371; Normalized cell count (HCT 116) ([3]; 1.235 microM): 0.7255; Normalized cell count (HCT 116) ([3]; 3.704 microM): 0.538; Normalized cell count (HCT 116) ([3]; 11.111 microM): 0.1546; Normalized cell count (HCT 116) ([3]; 33.333 microM): 0.09126; Normalized cell count (HCT 116) ([3]; 100.000 microM): 0.1143; IC50 ([3]; Homo sapiens, HCT-116, HCT116, read-out: IC50 of the antiproliferation activity): 3.1 ± 0.6 µM
CCOC(=O)c1c(C)nc2c(c(N3CCN(Cc4ccccc4F)CC3)nc(=O)n2-c2ccccc2)c1-c1ccccc1 [Example 150]	1.1200	1.0780	1.0735	1.0278	1.0553	0.9703	1.1975	1.2900	1.3025	1.5500	1	1.018	1.012	0.9701	0.9865	0.9917	1.106	1.081	1.034	0.6334	Normalized cell count (HCT 116) ([3]; 0.005 microM): 1; Normalized cell count (HCT 116) ([3]; 0.015 microM): 1.076; Normalized cell count (HCT 116) ([3]; 0.046 microM): 1.153; Normalized cell count (HCT 116) ([3]; 0.137 microM): 1.2; Normalized cell count (HCT 116) ([3]; 0.412 microM): 1.087; Normalized cell count (HCT 116) ([3]; 1.235 microM): 1.105; Normalized cell count (HCT 116) ([3]; 3.704 microM): 0.8597; Normalized cell count (HCT 116) ([3]; 11.111 microM): 0.4595; Normalized cell count (HCT 116) ([3]; 33.333 microM): 0.1363; Normalized cell count (HCT 116) ([3]; 100.000 microM): 0.1263
